Earlier results in publication PMC7998926 (Microorganisms, 2021).

System: MARV
Settings: mouse, in vivo; cited from earlier work

## CC(C)COCC(CN(Cc1ccccc1)c1ccccc1)N1CCCC1 (stereo not shown) [Bepridil]
  protection: strongly protected
